Data as given in patent US8987170B2, “Succinimide compound” (Sumitomo Chemical Company, Limited, priority 2013, dated 2015).

Experiments:
Assay type in all cases: cell-based
Pythium zingiberis [1] = assay: Antibacterial test on Pythium zingiberis (Test Example 1), mycelium growth on PDA medium; settings: 500 ppm in PDA medium
Method: A predetermined amount of Compound (1) was dissolved in dimethyl sulfoxide, and the resulting solution was added to a potato dextrose agar medium (PDA medium) so as to have a final concentration of 500 ppm. Separately, an agar piece containing bacteria cut out from the bacterial flora peripheral part of Pythium zingiberis pre-cultured in an additive-free PDA medium was inoculated on the PDA medium containing Compound (1), and cultured at 12° C. or 27° C., and then the mycelium growth inhibition rate was measured by the following Expression 1: Mycelium growth inhibition rate(%)=100−(Diameter of bacterial flora in added medium)/(Diameter of bacterial flora in additive-free medium)×100 Expression 1

Pythium zingiberis [2] = assay: Antibacterial test on Pythium zingiberis (Test Example 2), comparison with comparative compound; settings: 96 h, 500 ppm in PDA medium, cultured at 27° C. for 4 days, read-out: Mycelium growth inhibition rate (%)
Method: A predetermined amount of Compound (1) was dissolved in dimethyl sulfoxide, and the resulting solution was added to a potato dextrose agar medium (PDA medium) so as to have a final concentration of 500 ppm. Separately, an agar piece containing bacteria cut out from the bacterial flora peripheral part of Pythium zingiberis pre-cultured in an additive-free PDA medium was inoculated on the PDA medium containing Compound (1), and cultured at 27° C. for 4 days, and then the mycelium growth inhibition rate was measured by Expression 1. In addition, the test was conducted in the same manner, using N-[7-fluoro-3,4-dihydro-3-oxo-4-(2-propynyl)-2H-1,4-benzoxazin-6-yl]cyclohex-1-ene-1,2-dicarboxamide as a comparative example, in place of Compound (1).

Pythium debaryanum = assay: Antibacterial test on Pythium debaryanum, mycelium growth state on PDA medium; settings: predetermined concentration in PDA medium; cultured at 27° C.
Method: A predetermined amount of Compound (1) was dissolved in dimethyl sulfoxide, and the resulting solution was added to a potato dextrose agar medium (PDA medium) so as to have a final concentration of predetermined concentration. Separately, an agar piece containing bacteria cut out from the bacterial flora peripheral part of Pythium debaryanum pre-cultured in an additive-free PDA medium was inoculated on the PDA medium containing Compound (1), and cultured at 27° C., and then the mycelium growth state was observed.

`C#CCN1C(=O)COc2cc(F)c(N3C(=O)C4CC=CCC4C3=O)cc21` (stereo not shown) [Compound (1), N-[7-fluoro-3,4-dihydro-3-oxo-4-(2-propynyl)-2H-1,4-benzoxazin-6-yl]cyclohex-4-ene-1,2-dicarboxamide] showed an inhibition at 500 ppm (Pythium zingiberis [1]; 24 h, culture temperature 27° C., observation Day 1, read-out: Mycelium growth inhibition rate (%)) of 53%, an inhibition at 500 ppm (Pythium zingiberis [1]; 96 h, culture temperature 12° C., observation Day 4, read-out: Mycelium growth inhibition rate (%)) of 100% and an inhibition at 500 ppm (Pythium zingiberis [2]) of 50%. For the same compound, the “effect of controlling Pythium debaryanum (mycelium growth state observed)” value (Pythium debaryanum) was “has an effect of controlling Pythium debaryanum”.
